The test system of data set [1] is ctDNA. Briefly: ctDNA detection by fluorescence of the probe in Tris-HCl/KCl buffer pH 7.2. In kind it is binding. The protocol: First, a buffer solution of pH 7.2 is prepared, the preparation process of which is as follows: 394 mg of Tris-HCl and 1.863 g of KCl are added to a 250 ml beaker, and deionized water is added to prepare a buffer solution containing 10 mmol/L Tris-HCl and 100 mmol/L KCl and of pH 7.2 buffer solution.
Then, the buffer solution was used to prepare 0-500 μg/ml ctDNA aqueous solutions, wherein the BHVC content was maintained at 5×10^−6 mol/L.
Taking deionized water solution with ctDNA content of 100 μg/ml as an example, the specific preparation process is described as follows: First, […] compound BHVC was added to a 100 ml volumetric flask, followed by the addition of 100 ml pH 7.2 buffer solution to formulate to a BHVC buffer solution of concentration of 10^−4 mol/L, then 1 ml the above solution was removed to dilute to 10 ml so that the concentration of BHVC was 10^−5 mol/L, 5 ml of this solution was taken and added to a clean spawn bottle.
Then […] ctDNA was taken and added to 10 ml volumetric flask, buffer was added to formulate as 100 μg/ml ctDNA solution, 1 ml this solution was taken, and then added to 4 ml buffer solution, the ctDNA concentration is diluted to 20 μg/ml, the ctDNA solution was added dropwise to the BHVC buffer solution previously placed in the spawn bottle under vigorous stirring. After the addition was completed, the ctDNA solution was allowed to stand still for 2 hours and its UV-Vis absorption and fluorescence spectra were measured.
Based on the study of the absorption and aggregation-induced luminescence properties of BHVC, the fluorescence occurrence behavior of BHVC buffer solution with different ctDNA concentrations was studied with a buffer solution of pH 7.2 and containing 10 mmol/L Tris-HCl and 100 mmol/L KCl, the changes in the detected fluorescence spectrum are shown in FIG. 3 (a). It can be seen from the figure: as the ctDNA concentration increases, the fluorescence intensity of the solution gradually increases, and the fluorescence peak is blue-shifted. When the content of ctDNA changed from 0 μg/ml to 50 μg/ml, the maximum emission peak of fluorescence spectrum shifted from 633 nm to 598 nm, that is blue shifted […]. When the ctDNA concentration was more than 50 μg/ml, the blue shift of the peak of the fluorescence spectrum appeared inflection point, the rate of change slowed down. When the ctDNA content was 500 μg/ml, the peak shifted to 576 nm, which was a blue shift of […] relative to the fluorescence spectrum of a 50 μg/ml DNA solution (FIG. 3 (b)).
The trend in the change of fluorescence intensity of the solution is shown in FIG. 4 (A), with the ctDNA concentration increases, the fluorescence intensity of the solution can be divided into two intervals. […]

A short description of data set [2]: Fluorescence in water, ethanol and acetone (aggregation-induced luminescence). In kind it is physicochemical. The protocol:
Fluorescence spectra were measured on a Perkin Elmer LS95, HITACH F-4500, and Edinburgh FLS920 fluorescence spectrometers at room temperature with laterally collection of fluorescence. Fluorescence lifetime was measured using the Edinburgh FLS920 fluorescence spectrometer. Two-photon fluorescence utilized laser pulses emitted by a Ti: sapphire Mira900-F mode-locked laser as the irradiation light source with a repetition frequency of 76 MHz and a pulse width of 200 fs using the SpectroPro 300i spectrometer to collect fluorescence laterally. […] All the test utilized 1.0 cm×1.0 cm Quartet pass quartz crystal cuvette. Reagents used to prepare solutions are either spectroscopic or chromatographic purified.
It can be seen that the fluorescence intensity of BHVC in aqueous solution is very weak and the fluorescence emission peak is at 627 nm. However, the fluorescence intensity in ethanol solution with the same concentration of BHVC increases by 30 times, and the fluorescence emission peak red-shifted to 631 nm. In fact, ethanol is a poor solvent for BHVC. Therefore, BHVC exists in the form of aggregates in ethanol solvent.

Data set [3] can be described thus: UV-Vis absorption of aqueous solutions at different concentrations (solubility). The note with it: 10^-6 to 10^-4 mol/L, no shift of UV absorption spectrum. In kind it is physicochemical. The source says:
The UV-vis absorption spectra of aqueous solutions of different concentrations of BHVC are shown in FIG. 1, the absorption peak at […] is derived from the absorption of the two cross-shaped skeletons of BHVC, and the absorption peak at […] is the characteristic absorption peak of tetraphenylethylene group. When the concentration of BHVC in aqueous solution changed from 10^−6 mol/L to 10^−4 mol/L, there was no red-shift or blue-shift of the UV absorption spectrum of the solution. In general, the shift of the absorption peak of the π-conjugated chromophore solution is due to the π-π interaction between the molecules.

Consider `CCn1c2cc(/C=C/c3cc[n+](C)cc3)ccc2c2ccc(/C=C/c3cc[n+](C)cc3)cc21.[I-].[I-]` [BHVC, 2,7-bis (1-methyl-4-vinylpyridine)-9-ethylcarbazole iodised salt], for which the “Stern-Volmer constant Ksv” value in data set [1] (ctDNA 0-50 μg/ml linear interval, I/I0=Ksv[Q]+1, excitation 420 nm) was 1.4×10^2. Besides, the “blue shift of emission peak (to 576 nm) relative to 50 μg/ml DNA solution” value in data set [1] (ctDNA 500 μg/ml) was determined as 24 nm. For the same compound, the “increase of fluorescence intensity relative to 0 μg/ml ctDNA” value in data set [1] (ctDNA 500 μg/ml, BHVC 5×10^-6 mol/L) is listed as 20 fold. For the same compound, in data set [1] (ctDNA from 0 μg/ml to 50 μg/ml), the blue shift of maximum emission peak (633 nm to 598 nm) stood at 35 nm. Also, the “increase of fluorescence intensity in ethanol versus aqueous solution” value in data set [2] (10^-5 mol/L, excitation 420 nm) is reported as 30 times. The “solvent quality of ethanol for the probe” value in data set [2] (ethanol, exists as aggregates) is listed as “poor solvent”. For the same compound, the “solubility in aqueous solution” value in data set [3] is “good solubility”.
